According to patent US9522903B2 (priority 2010, dated 2016):

Assays:
[1] = tested on: rat vascular ring system precontracted with norepinephrine
[2] = tested on: murine model of renal ischemia-reperfusion injury; set-up: species or system mice; conditions: mouse, in vivo
[3] = tested on: rat model of myocardial ischemia-reperfusion injury (MIRI); conditions: in vivo
[4] = mouse, in vivo, ip

Substance: 2-cyano-1-(1-hydroxy-2,2,5,5-tetramethylpyrrolidin-3-yl)-3-(pyridin-3-yl)guanidine [compound 2]
- ED50 (ex vivo vasodilator potency) compared to pinacidil [1]: one log greater than that of pinacidil
- elevation in plasma blood urea nitrogen (BUN) [2]: profoundly attenuated
- elevation in plasma creatinine [2]: profoundly attenuated
- elevation in renal myeloperoxidase (MPO) [2]: profoundly attenuated
- protection against severe renal tubular necrosis (histologic studies) [2]: near total protection
- histologic features of injury (myocyte necrosis, edema, neutrophil infiltration) [3]: profoundly attenuated virtually all histologic features of injury
- mean arterial pressure (systemic hypotension) [3]: did not produce systemic hypotension
- myocardial myeloperoxidase (MPO) [3]: significantly reduced
- tissue infarction (infarct size) [3]: significantly reduced
- effect on blood glucose levels compared with saline vehicle group [4]: did not exhibit any significant effect
